Experimental data as given in patent US20230330093A1, “APPLICATION OF NITROGEN-CONTAINING SATURATED HETEROCYCLIC COMPOUND” (SHANGHAI PHARMACEUTICALS HOLDING CO., LTD., priority 2020, published 2023).
“And” between values parts separate entries of the source, which are not always exact repeats. Equal entries are not always repeated.

What was measured:
[1] = system: rhesus monkeys with spontaneous chronic kidney disease; experiment: Effect on blood pressure (SBP, DBP, MBP, HR) after anesthesia, 8-week administration; format: in vivo, Macaca mulatta (Rhesus Macaque); details: for DBP / SBP: Valsartan group (n = 3)
From the text: (§1) In the trial, animals were brought in three stages.
Route of administration: Oral administration.
After anesthesia, the animal was placed in a supine position. The left upper arm was shaved clean, and a suitable size cuff was tied according to the standard. The blood oxygen probe was clamped on the animal's finger or toe (except for the left hand), and the red light-sensitive surface was on the side of the finger pad. The blood pressure of the animal was continuously measured for 3 times in the automatic mode with an interval of 1 min. If the difference of DBP, SBP and MBP of blood pressure measured more than three times was not significant (the difference between the highest value and the lowest value was less than 15 mmHg), the measurement was completed.
Testing equipment: GE B40i electrophysiological monitor.
See Table 16 for the effects of administration of each administration group on blood pressure. The blood pressure test of primates required anesthesia, so it was necessary to control the variability of heart rate at various time points to make statistics.

[2] = system: rhesus monkeys with spontaneous chronic kidney disease; experiment: Effect on cystatin C (CysC), 8-week administration; format: in vivo, Macaca mulatta (Rhesus Macaque); details: Valsartan group (n = 3)
Method: In the trial, animals were brought in three stages. […] Glomerular filtration rate […]: creatinine (Cr-P), urea nitrogen (BUN) and cystatin (CysC) were detected, and the eGFR value was obtained by calculation. It was performed once before the administration and once every two weeks after the administration. […] ELISA kit was used for NT-proBNP test. [table]

[3] = system: rhesus monkeys with spontaneous chronic kidney disease; experiment: Effect on heart function, cardiac Doppler ultrasound, 8-week administration; details: for Ea / LVEF: Valsartan group (n = 3)
Method: as §1
This was performed once before administration and once after administration. UACR=MALB/Cr—U. • Blood pressure: the blood pressure was checked after anesthesia, including systolic blood pressure (SBP), diastolic blood pressure (DBP), mean blood pressure (MBP) and heart rate (HR). This was performed once before administration and once at weeks 4 and 8 respectively after administration. • Cardiac GE Doppler ultrasound: historical cardiac ultrasonography once within 1 year (selected animals), once before administration (within 30 days (D-30) of the baseline period), and once at week 8 after administration.
Anesthesia method: 15 mg/kg of ketamine hydrochloride was used for intramuscular injection anesthesia. According to the animal anesthesia state, the supplemental anesthesia will be performed after judgment by veterinarian. Each supplemental anesthesia dose was ½ of the initial dose.
Detection method: The animal was placed in the left decubitus position, and the 6S-RS probe (frequency 2.7-8.0 MHz) was used for image acquisition.
Analysis method: After the image was collected and saved, the supporting analysis workstation EchoPAC Software was used to repeatedly detect various indicators of systolic and diastolic functions in 3 consecutive cardiac cycles.
Testing indicators and ultrasonic technology: see Table 9 below.
Testing equipment: GE Vivid S5 color Doppler ultrasound diagnostic system.

[4] = Baseline, single animals and Mean ± SD
[5] = Baseline, single animals and Mean ± SD, mean
[6] = Valsartan group (n=3), after W8 administration, p<0.01 vs placebo

Question: How did the DBP ([1]; 4 weeks) turn out when `CCCCC(=O)N(Cc1ccc(-c2ccccc2-c2nnn[nH]2)cc1)[C@H](C(=O)O)C(C)C` [Valsartan, reference compound] was run?
Answer: 62 mmHg and 53 mmHg

Question: And the SBP ([1]; 4 weeks)?
Answer: 130 mmHg and 106 mmHg and 138 mmHg

Question: What about the DBP ([1]; 4 weeks, mean) of the same molecule?
Answer: 59 ± 5 mmHg

Question: What about the SBP ([1]; 4 weeks, mean) of the same molecule?
Answer: 125 ± 17 mmHg

Question: And the DBP ([1]; 8 weeks)?
Answer: 61 mmHg and 53 mmHg and 75 mmHg

Question: What about the SBP ([1]; 8 weeks) of the same molecule?
Answer: 121 mmHg and 107 mmHg and 133 mmHg

Question: What about the DBP ([1]; 8 weeks, mean) of the same molecule?
Answer: 63 ± 11 mmHg

Question: And the SBP ([1]; 8 weeks, mean)?
Answer: 120 ± 13 mmHg

Question: And the DBP ([1]; Baseline)?
Answer: 67 mmHg and 60 mmHg and 82 mmHg

Question: What about the DBP ([1]; Baseline, mean) of the same molecule?
Answer: 70 ± 11 mmHg

Question: What about the SBP [1, 4] of the same molecule?
Answer: 131 mmHg and 125 mmHg and 148 mmHg

Question: What about the SBP [1, 5] of the same molecule?
Answer: 135 ± 12 mmHg

Question: What about the “DBP decreased by on average, compared with the baseline” value [1, 6] of the same molecule?
Answer: 7±0 mmHg

Question: What about the “SBP decreased by on average, compared with the baseline” value [1, 6] of the same molecule?
Answer: 14±4 mmHg

Question: What about the CysC ([2]; 2 weeks) of the same molecule?
Answer: 1.44 mg/L and 1.62 mg/L and 1.76 mg/L

Question: What about the CysC ([2]; 2 weeks, mean) of the same molecule?
Answer: 1.61 ± 0.16 mg/L

Question: And the CysC ([2]; 4 weeks)?
Answer: 1.47 mg/L and 1.65 mg/L and 1.74 mg/L

Question: And the CysC ([2]; 4 weeks, mean)?
Answer: 1.62 ± 0.14 mg/L

Question: What about the CysC ([2]; 6 weeks) of the same molecule?
Answer: 1.58 mg/L and 1.69 mg/L

Question: What about the CysC ([2]; 6 weeks, mean) of the same molecule?
Answer: 1.62 ± 0.06 mg/L

Question: What about the CysC ([2]; 8 weeks) of the same molecule?
Answer: 1.59 mg/L and 1.64 mg/L and 1.63 mg/L

Question: And the CysC ([2]; 8 weeks, mean)?
Answer: 1.62 ± 0.03 mg/L

Question: What about the CysC [2, 4] of the same molecule?
Answer: 1.66 mg/L and 1.68 mg/L and 1.73 mg/L

Question: What about the CysC [2, 5] of the same molecule?
Answer: 1.69 ± 0.04 mg/L

Question: What about the Ea ([3]; 8 weeks) of the same molecule?
Answer: 7.01 cm/s and 7.17 cm/s and 4.61 cm/s

Question: And the LVEF ([3]; 8 weeks)?
Answer: 64.09% and 57.98% and 61.97%

Question: What about the Ea ([3]; Baseline) of the same molecule?
Answer: 4.16 cm/s and 5.14 cm/s and 3.44 cm/s

Question: What about the LVEF [3, 4] of the same molecule?
Answer: 64.02% and 58.75% and 59.26%

Question: And the “adverse reaction in the systolic and diastolic function (echocardiography)” value ([3]; each dose group, 8-week administration)?
Answer: no obvious adverse reaction
